# Assay results published in patent publication US20250115558A1, “PYRIDAZINE DERIVATIVES AND RELATED USES” (NodThera Limited, priority 2023, published 2025).
# Counter-ions that a name gives are not always drawn.
# Legend:
# THP-1 = THP-1 IC50 assay; format: cell-based; settings: Homo sapiens; THP-1 cells
# [1] = tested on: IL-1β release upon NLRP3 activation in peripheral blood mononuclear cells (PBMC); assay: PBMC IC50 Determination Assay; format: cell-based; settings: Homo sapiens; inhibition of IL-1β release; LPS-primed PBMC stimulated with ATP or nigericin
# Protocol: The compounds of the present disclosure were tested for their inhibitory activity against IL-1β release upon NLRP3 activation in peripheral blood mononuclear cells (PBMC).
# Protocol A. PBMC were isolated from buffy coats by density gradient centrifugation on Histopaque-1077 (Sigma, cat no. 10771). Isolated cells were seeded into the wells of a 96-well plate and incubated for 3 h with lipopolysaccharide (LPS). Following medium exchange, the compounds of the present disclosure were added (a single compound per well) and the cells were incubated for 30 min. Next, the cells were stimulated either with ATP (5 mM) or nigericin (10 μM) for 1 h and the cell culture media from the wells were collected for further analysis.
# The release of IL-1β into the media was determined by a quantitative detection of IL-1β in the media using an IL-1β enzyme-linked immunosorbent assay (ELISA) Ready-SET-Go!, eBioscience cat. No. 88-7261-88. Briefly, in a first step, high affinity binding plates (Corning, Costar 9018 or NUNC Maxisorp Cat No. 44-2404) were coated overnight at 4° C. with specific capture antibody included in the kit (anti-human IL-1β ref. 14-7018-68). Subsequently, plates were blocked with blocking buffer for 1 h at room temperature (rt) and after washing with a buffer (PBS with 0.05% Tween-20) incubated with protein standard and culture media. After 2 h of incubation at rt, plates were washed and incubated with biotinylated detection antibody included in the kit (anti-human IL-1β Biotin ref. 33-7110-68) for 1 h at rt. Plates were washed and incubated with HRP-streptavidin for 30 min at rt and washed again. The signal was developed after addition of 3,3′,5,5′-tetramethylbenzidine-peroxidase (TMB) until colour appeared and the reaction was stopped by 2 M H2SO4. A microplate spectrophotometer (BioTek) was used to detect signals with 450 nm. The detection range of IL-1β ELISA was […].
# Protocol B. PBMC were isolated from buffy coats by density gradient centrifugation on Histopaque-1077 (Sigma, cat no. 10771). Isolated cells were seeded into the wells (280,000 cells/well) of a 96-well plate and incubated for 3 h with lipopolysaccharide (LPS, 1 μg/mL diluted 1000× from a 1 mg/mL stock solution). The compounds of the present disclosure were added (a single compound per well) and the cells were incubated for 30 min. Next, the cells were stimulated with ATP (5 mM final concentration diluted 20× from a 100 mM stock solution) for 1 h and the cell culture media from the wells were collected for further analysis.
# The release of IL-1β into the media was determined by quantitative detection of IL-1β in the media using HTRF®, CisBio cat. No. 62HIL1BPEH. Briefly, cell culture supernatant were dispensed directly into the assay plate containing antibodies labelled with the HTRF® donor and acceptor. A microplate spectrophotometer (BMG) was used to detect signals at 655 nm and 620 nm. The detection range of IL-1β HTRF® was 39-6500 μg/mL.
SMILES,IC50 (THP-1) [µM],IC50 [1] [µM]
"Cc1cc(C(F)(F)F)cc(O)c1-c1ccc(CN[C@H]2CCOC2)nn1 [Compound 33, (S)-3-methyl-2-(6-(((tetrahydrofuran-3-yl)amino)methyl)pyridazin-3-yl)-5-(trifluoromethyl)phenol]",< 0.5,< 0.5
"Cc1cc(C(F)(F)F)cc(O)c1-c1ccc(CN2CC[C@@H](F)C2)nn1 [Compound 34, (R)-2-(6-((3-Fluoropyrrolidin-1-yl)methyl)pyridazin-3-yl)-3-methyl-5-(trifluoromethyl)phenol]",1 to 3,1 to 3
"Cc1cc(C(F)(F)F)cc(O)c1-c1ccc(CN2CC[C@H](F)C2)nn1 [Compound 35, (S)-2-(6-((3-Fluoropyrrolidin-1-yl)methyl)pyridazin-3-yl)-3-methyl-5-(trifluoromethyl)phenol]",0.5 to 1,0.5 to 1
"Oc1cc(Cl)cc(Cl)c1-c1ccc(CNC2CCOCC2)nn1 [Compound 36, 3,5-Dichloro-2-(6-(((tetrahydro-2H-pyran-4-yl)amino)methyl)pyridazin-3-yl)phenol]",1 to 3,0.5 to 1
"Cc1cc(C(F)(F)F)cc(O)c1-c1ccc(CN[C@@H]2CCN(C)C(=O)C2)nn1 [Compound 37, (R)-4-(((6-(2-Hydroxy-6-methyl-4-(trifluoromethyl)phenyl)pyridazin-3-yl)methyl)amino)-1-methylpiperidin-2-one]",1 to 3,0.5 to 1
"Cc1cc(C(F)(F)F)cc(O)c1-c1ccc(CN2CCC(F)(F)C2)nn1 [Compound 38, 2-(6-((3,3-Difluoropyrrolidin-1-yl)methyl)pyridazin-3-yl)-3-methyl-5-(trifluoromethyl)phenol]",0.5 to 1,< 0.5
"CO[C@@H]1CCN(Cc2ccc(-c3c(C)cc(C(F)(F)F)cc3O)nn2)C1 [Compound 39, (R)-2-(6-((3-Methoxypyrrolidin-1-yl)methyl)pyridazin-3-yl)-3-methyl-5-(trifluoromethyl)phenol]",1 to 3,0.5 to 1
"CO[C@H]1CCN(Cc2ccc(-c3c(C)cc(C(F)(F)F)cc3O)nn2)C1 [Compound 40, (S)-2-(6-((3-Methoxypyrrolidin-1-yl)methyl)pyridazin-3-yl)-3-methyl-5-(trifluoromethyl)phenol]",1 to 3,0.5 to 1
"Cc1cc(C(F)(F)F)cc(O)c1-c1ccc(COC2CCCN(C)C2)nn1 (stereo not shown) [Compound 41, 3-Methyl-2-(6-(((1-methylpiperidin-3-yl)oxy)methyl)pyridazin-3-yl)-5-(trifluoromethyl)phenol hydrochloride]",1 to 3,0.5 to 1
"Oc1cc(C(F)(F)F)cc(F)c1-c1ccc(CNC2CCOCC2)nn1 [Compound 42, 3-Fluoro-2-(6-(((tetrahydro-2H-pyran-4-yl)amino)methyl)pyridazin-3-yl)-5-(trifluoromethyl)phenol]",3 to 10,3 to 10
"Cc1cc(C(F)(F)F)cc(O)c1-c1ccc(CN[C@@H]2CCC(=O)N(C)C2)nn1 [Compound 43, (R)-5-(((6-(2-Hydroxy-6-methyl-4-(trifluoromethyl)phenyl)pyridazin-3-yl)methyl)amino)-1-methylpiperidin-2-one]",0.5 to 1,< 0.5
"Cc1cc(C(F)(F)F)cc(O)c1-c1ccc(CN2CCOC2=O)nn1 [Compound 44, 3-((6-(2-Hydroxy-6-methyl-4-(trifluoromethyl)phenyl)pyridazin-3-yl)methyl)oxazolidin-2-one]",0.5 to 1,< 0.5
"Cc1cc(C(F)(F)F)cc(O)c1-c1ccc(COC2CCN(C)CC2)nn1 [Compound 45, 3-Methyl-2-(6-(((1-methylpiperidin-4-yl)oxy)methyl)pyridazin-3-yl)-5-(trifluoromethyl)phenol hydrochloride]",1 to 3,1 to 3
"Cc1cc(C(F)(F)F)cc(O)c1-c1ccc(CN2CC(C)CC2=O)nn1 (stereo not shown) [Compound 46, 1-((6-(2-Hydroxy-6-methyl-4-(trifluoromethyl)phenyl)pyridazin-3-yl)methyl)-4-methylpyrrolidin-2-one]",1 to 3,1 to 3
"Cc1cc(C(F)(F)F)cc(O)c1-c1ccc(CN2C(=O)CCC2(C)C)nn1 [Compound 47, 1-((6-(2-Hydroxy-6-methyl-4-(trifluoromethyl)phenyl)pyridazin-3-yl)methyl)-5,5-dimethylpyrrolidin-2-one]",3 to 10,1 to 3
"Cc1cc(C2CC2)cc(O)c1-c1ccc(CNC2CCOCC2)nn1 [Compound 48, 5-Cyclopropyl-3-methyl-2-(6-(((tetrahydro-2H-pyran-4-yl)amino)methyl)pyridazin-3-yl)phenol]",1 to 3,1 to 3

# The next lines start with results.
IC50 (THP-1) [µM],SMILES,IC50 [1] [µM]
< 0.5,"Cc1cc(C(F)(F)F)cc(O)c1-c1ccc(CN[C@H]2CC(=O)N(C)C2)nn1 [Compound 49, (S)-4-(((6-(2-Hydroxy-6-methyl-4-(trifluoromethyl)phenyl)pyridazin-3-yl)methyl)amino)-1-methylpyrrolidin-2-one]",< 0.5
3 to 10,"Cc1cc(C(F)(F)F)cc(O)c1-c1ccc(CN[C@@H]2CC(=O)N(C)C2)nn1 [Compound 50, (R)-4-(((6-(2-Hydroxy-6-methyl-4-(trifluoromethyl)phenyl)pyridazin-3-yl)methyl)amino)-1-methylpyrrolidin-2-one]",1 to 3
1 to 3,"Cc1cc(C(F)(F)F)cc(O)c1-c1ccc(CNc2c(C)noc2C)nn1 [Compound 51, 2-(6-(((3,5-Dimethylisoxazol-4-yl)amino)methyl)pyridazin-3-yl)-3-methyl-5-(trifluoromethyl)phenol]",0.5 to 1
3 to 10,"Cc1cc(F)cc(O)c1-c1ccc(CNC2CCOCC2)nn1 [Compound 52, 5-Fluoro-3-methyl-2-(6-(((tetrahydro-2H-pyran-4-yl)amino)methyl)pyridazin-3-yl)phenol]",3 to 10
< 0.5,"Cc1cc(Cl)cc(O)c1-c1ccc(CN[C@@H]2CCOC2)nn1 [Compound 53, (R)-5-Chloro-3-methyl-2-(6-(((tetrahydrofuran-3-yl)amino)methyl)pyridazin-3-yl)phenol]",< 0.5
0.5 to 1,"Cc1cc(Cl)cc(O)c1-c1ccc(CN2CCCC2)nn1 [Compound 54, 5-Chloro-3-methyl-2-(6-(pyrrolidin-1-ylmethyl)pyridazin-3-yl)phenol]",< 0.5
0.5 to 1,"Cc1cc(C(F)(F)F)cc(O)c1-c1ccc(CNc2conc2C)nn1 [Compound 55, 3-Methyl-2-(6-(((3-methylisoxazol-4-yl)amino)methyl)pyridazin-3-yl)-5-(trifluoromethyl)phenol]",0.5 to 1
1 to 3,"Cc1cc(Cl)cc(O)c1-c1ccc(CNc2c(C)noc2C)nn1 [Compound 56, 5-Chloro-2-(6-(((3,5-dimethylisoxazol-4-yl)amino)methyl)pyridazin-3-yl)-3-methylphenol]",0.5 to 1
3 to 10,"Cc1cc([N+](=O)[O-])cc(O)c1-c1ccc(CNC2CCOCC2)nn1 [Compound 57, 3-Methyl-5-nitro-2-(6-(((tetrahydro-2H-pyran-4-yl)amino)methyl)pyridazin-3-yl)phenol hydrochloride]",1 to 3
1 to 3,"Cc1cc(Cl)cc(O)c1-c1ccc(CN(C)[C@@H]2CCOC2)nn1 [Compound 58, (R)-5-Chloro-3-methyl-2-(6-((methyl(tetrahydrofuran-3-yl)amino)methyl)pyridazin-3-yl)phenol]",1 to 3
0.5 to 1,"Cc1cc(Cl)cc(O)c1-c1ccc(CN(C)[C@H]2CCOC2)nn1 [Compound 59, (S)-5-Chloro-3-methyl-2-(6-((methyl(tetrahydrofuran-3-yl)amino)methyl)pyridazin-3-yl)phenol]",1 to 3
1 to 3,"CO[C@@H]1CCN(Cc2ccc(-c3c(C)cc(Cl)cc3O)nn2)C1 [Compound 60, (R)-5-Chloro-2-(6-((3-methoxypyrrolidin-1-yl)methyl)pyridazin-3-yl)-3-methylphenol]",1 to 3
1 to 3,"CO[C@H]1CCN(Cc2ccc(-c3c(C)cc(Cl)cc3O)nn2)C1 [Compound 61, (S)-5-Chloro-2-(6-((3-methoxypyrrolidin-1-yl)methyl)pyridazin-3-yl)-3-methylphenol]",1 to 3
